In PMC6831611, “Proof-of-Concept Study of Drug Brain Permeability Between in Vivo Human Brain and an in Vitro iPSCs-Human Blood-Brain Barrier Model” (Scientific Reports, 2019):
Entries after “also recorded” stand apart in the source; their conditions may differ. Like-named read-outs stand apart in the source and are kept apart here.

Legend:
[1] = system: human brain (BBB); details: PET, cited from earlier work; for K1, rate constant for transfer from arterial plasma into brain: human brain; for cerebral uptake / brain distribution in human brain (in words): in vivo, ref S1 Table 1
[2] = system: iPSC-hBBB monolayer; test: Apparent permeability (Papp A to B) across the in vitro iPSC-hBBB model; details: iPSC-hBBB model, PappAB
Protocol: (§1) On day before the co-culture establishment, rat glial cells (2 × 10^4 cells) isolated as described previously[6] were plated on 12 wells plate (Costar) in glial specific medium. After 24 hours, hiPSC-BECs (6 × 10^4cells) were plated on the upper side of a collagen-coated polyester Transwell membrane (Costar, pore size 0.4 µm; diameter 12 mm; insert growth area 1 cm^2) in 0.5 mL of endothelial medium.
(§2) Experiments were performed in triplicate for each compound.
(§3) For LC-MS/MS a sample aliquot (transfer buffer) was diluted by half with acetonitrile and then, 10 μL of this solution was injected into the analytical equipment made up a Liquid Chromatography system coupled to a triple quadrupole mass spectrometer Thermofisher TS Quantum Discovery or Waters Quattro Premier XE equipped with a electrospray ionization source. System control and data processing were carried out using Xcalibur or Masslynx software. The chromatographic separation was performed on a Waters ACQUITY UPLC BEH C18 column (2.1 mm × 50 mm, 1.7 μm) at 60 °C. A gradient of two solvent mixtures was delivered at 0.3 mL/min or 0.5 mL/min according to the analytical system. Solvent A comprised 0.1% formic acid in ammonium acetate (5 mM) and solvent B, 0.1% formic acid in acetonitrile. Molecules were ionized in positive mode. Multiple reaction monitoring mode was used for compounds quantification. For all tested compounds, a linear gradient of mobile phase A and B was optimized. Linearity of the response was verified in the range 0.05 to 5 µM through 3 experiments to be able to measure low passage. Quantification was carried out using standard calibration curve and quality control samples prepared with blank matrix (transfer buffer/acetonitrile; 1/1; v/v) spiked with compounds.

[3] = system: in vitro primary cell-based rat BBB model; test: Apparent permeability in the in vitro primary cell-based rat BBB model; details: in vitro cell based rat BBB model vs iPSC-hBBB model
From the text: We previously described an in vitro primary cell-based rat BBB model with relevant features of the in vivo rat BBB[6]. We therefore analyzed correlatively the permeability of a set of compounds obtained using the in vitro iPSC-hBBB model and the in vitro cell based rat BBB model.

[4] = system: ABC transporters (P-gp) in the iPSC-hBBB model
Protocol: (§4) A known P-gp substrate was used to assess the asymmetry index of the iPSC- hBBB model.
(§5) The integrity of iPSC-derived human BBB model was determined by assessment of radiolabelled sucrose permeability as a paracellular marker. The transwells with hiPSC-BECs monolayers were transferred to new 12 well plates. […] After 1 hour of incubation at 37 °C with gentle rotation, 100 µL of transfer buffer from both A and B compartments were collected and counted by scintillation. The Papp value was calculated as followed: Papp=dQ/dTXAXC0 where dQ/dT is the amount of compound transported per time point; A is the membrane surface area of the insert; and Co is the donor concentration at the time point. Data were presented as the average ± SD from three monolayers. […] The propranolol permeability was also tested using the same protocol with an apical tested dose about 1 µCi/mL (48 nM) of [^3H]propranolol in transfer buffer. […] After checking the cell monolayer integrity, the monolayers were transferred to new plates. The buffer (150 mM NaCl, 5.2 mM KCl, 2.2 mM CaCl2, 0.2 mM MgCl2, 6 mM NaHCO3, 2.8 mM glucose and 5 mM Hepes) was added: 1.5 mL to the basal chamber (B) and 0.5 mL to the apical chamber (A). Experiments were performed in triplicate for each compound. […] After 60 min, aliquots were removed from the acceptor and basal chambers for drug-concentration determination by LC-MS/MS.

[5] = system: ABC transporters in the in vitro primary rat cell based BBB model
[6] = Apparent permeability (Papp A to B) across the in vitro iPSC-hBBB model; details: human
Protocol: as §1, §2, §3

[7] = system: ABC transporters (P-gp); test: in vitro; details: human, PappBA/PappAB efflux ratio (ER)
Protocol: as §4, §5

[8] = system: ABC transporters; test: in vitro; details: rat

Compound	in vitro permeability across the iPSC-hBBB model (in words) [2]	permeability in the rat BBB model compared with the iPSC-hBBB model (in words) [3]	ABC transporter substrate / interaction (in words) [4]	K1, rate constant for transfer from arterial plasma into brain [1]	other results
COC[C@H]1CN(c2ccc(OCC[C@@H](O)C(F)(F)F)cc2)C(=O)O1 [befloxatone]	high permeability	–	–	–	K1, rate constant for transfer from arterial plasma into brain ([1]; ref unpublished data): 0.20 mL.cm-3.min-1; cerebral uptake / brain distribution in human brain (in words) [1]: high cerebral uptake
Cn1c(=O)c2c(ncn2C)n(C)c1=O [caffeine]	–	higher	–	–	–
COc1ccc2c(c1)[C@]13CCCC[C@@H]1[C@H](C2)N(C)CC3 [dextromethorphan]	–	higher	–	–	–
C#Cc1cccc(Nc2ncnc3cc(OCCOC)c(OCCOC)cc23)c1 [erlotinib]	high permeability	–	not in the in vitro iPSC-hBBB model	0.02 mL.cm-3.min-1	cerebral uptake / brain distribution in human brain (in words) [1]: low cerebral uptake; ABC transporter substrate / interaction (in words) [5]: apparently an ABC transporter substrate
CN(C)C(=O)C(CCN1CCC(O)(c2ccc(Cl)cc2)CC1)(c1ccccc1)c1ccccc1 [loperamide]	low apparent permeability	higher	likely to be also ABC transporter substrates; also recorded: apparently interacted with ABC transporters	0.002 mL.cm-3.min-1	–
CC(C)NCC(O)COc1cccc2ccccc12 (stereo not shown) [propranolol]	–	–	–	–	Papp A→B at 1 h [6]: 21.7 ± 3.1 ×10⁻⁶ cm/s
CCN1CCC[C@H]1CNC(=O)c1c(O)c(Cl)cc(Cl)c1OC [raclopride]	–	–	–	0.09 mL.cm-3.min-1	–
CC[C@]1(O)C[C@@H]2CN(CCc3c([nH]c4ccccc34)[C@@](C(=O)OC)(c3cc4c(cc3OC)N(C)[C@H]3[C@@](O)(C(=O)OC)[C@H](OC(C)=O)[C@]5(CC)C=CCN6CC[C@]43[C@@H]65)C2)C1 [vinblastine]	–	–	likely to be also ABC transporter substrates	–	efflux ratio at 60 min [7]: 1.55 ± 0.4; efflux ratio [8]: ≥ 1.25
